Assay [1] has as its target T1, MTHFD2 recombinant human enzyme (Homo sapiens, UniProt P13995).
T1 sequence (P13995 36-350): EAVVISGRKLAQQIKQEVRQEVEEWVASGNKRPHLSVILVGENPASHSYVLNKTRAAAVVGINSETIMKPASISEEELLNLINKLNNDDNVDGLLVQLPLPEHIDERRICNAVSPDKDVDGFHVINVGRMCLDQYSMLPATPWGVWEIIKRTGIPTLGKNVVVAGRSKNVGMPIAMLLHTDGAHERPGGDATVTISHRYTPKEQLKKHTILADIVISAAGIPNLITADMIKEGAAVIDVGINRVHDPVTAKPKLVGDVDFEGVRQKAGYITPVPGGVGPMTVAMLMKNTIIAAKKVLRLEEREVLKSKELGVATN
Kind of assay: MTHFD2 inhibition assay (NAD(P)H-Glo luminescence). The settings on record: for MTHFD1/MTHFD2 IC50 ratio: selectivity of MTHFD2 inhibition over MTHFD1, band.

Assay [2] deals with T2, MTHFD1 recombinant human enzyme (Homo sapiens, UniProt P11586).
T2 sequence (P11586 2-291 limits assumed): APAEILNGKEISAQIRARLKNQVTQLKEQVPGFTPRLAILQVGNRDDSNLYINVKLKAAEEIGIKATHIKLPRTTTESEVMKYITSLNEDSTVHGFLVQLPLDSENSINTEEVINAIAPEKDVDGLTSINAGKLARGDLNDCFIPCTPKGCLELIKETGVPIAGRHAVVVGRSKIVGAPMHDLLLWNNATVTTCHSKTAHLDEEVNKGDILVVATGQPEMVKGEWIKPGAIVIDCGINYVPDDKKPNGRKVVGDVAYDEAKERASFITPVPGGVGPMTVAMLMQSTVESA
The assay can be described thus: MTHFD1 inhibition assay (NAD(P)H-Glo luminescence). Particulars: MTHFD1 IC50, recombinant human enzyme 200 nM, NADP, band.

As usually defined, the IC50 is the point on the concentration scale where inhibition reaches its midpoint. For `COC[C@H]1CN(c2cc(C)c3c4c(c(=O)oc3c2C)CN(C(=O)c2ccc(C(=O)NS(=O)(=O)N3CCCC3)c(O[C@@H]3C[C@@H]5C[C@@H]5C3)c2F)CC4)CCN1C` [Example 35, 2-(((1R,3r,5S)-bicyclo[3.1.0]hexan-3-yl)oxy)-3-fluoro-4-(8-((R)-3-(methoxymethyl)-4-methylpiperazin-1-yl)-7,10-dimethyl-5-oxo-1,3,4,5-tetrahydro-2H-chromeno[3,4-c]pyridine-3-carbonyl)-N-(pyrrolidin-1-ylsulfonyl)benzamide], in assay [1], the IC50 fell in the range of 1 to 10 nM and the “MTHFD1/MTHFD2 IC50 ratio” value is given as “F (<3)”. Moreover, in assay [2], the IC50 lay in the range of 1 to 10 nM.
In the case of `COC[C@H]1CN(c2cc(C)c3c4c(c(=O)oc3c2C)CN(C(=O)c2ccc(C(=O)NS(=O)(=O)N(C)C)c(OC3CCC3)c2C)CC4)CCN1C` [Example 179], in assay [1], the IC50 fell in the range of 10 to 100 nM and the “MTHFD1/MTHFD2 IC50 ratio” value is reported as “G (^ 3 to 9.0)”. For the same compound, in assay [2], the IC50 was in the range of 100 to 1000 nM.
Taken in the same sequence, the figures for `COC[C@H]1CN(c2cc(C)c3c4c(c(=O)oc3c2C)CN(C(=O)c2cc(OC)c(C(=O)NS(=O)(=O)N3CCCC3)c(C(F)(F)F)c2)CC4)CCN1C` [Example 154, (R)-2-methoxy-4-(8-(3-(methoxymethyl)-4-methylpiperazin-1-yl)-7,10-dimethyl-5-oxo-1,3,4,5-tetrahydro-2H-chromeno[3,4-c]pyridine-3-carbonyl)-N-(pyrrolidin-1-ylsulfonyl)-6-(trifluoromethyl)benzamide] were 100 to 1000 nM, “H (>9.0 to 30)” and 1000 to 5000 nM.
Take `COC[C@H]1CN(c2cc(C)c3c4c(c(=O)oc3c2C)CN(C(=O)c2ccc(C(=O)NS(=O)(=O)N3C5CCC3CC5)c(OC3CC3)c2F)CC4)CCN1C` [Example 213, (R)-N-((7-azabicyclo[2.2.1]heptan-7-yl)sulfonyl)-2-cyclopropoxy-3-fluoro-4-(8-(3-(methoxymethyl)-4-methylpiperazin-1-yl)-7,10-dimethyl-5-oxo-1,3,4,5-tetrahydro-2H-chromeno[3,4-c]pyridine-3-carbonyl)benzamide]: the figures for the IC50 in assay [1] and in assay [2] were 1 to 10 nM and 10 to 100 nM, respectively. For the same compound, the “MTHFD1/MTHFD2 IC50 ratio” value in assay [1] is given as “G (^ 3 to 9.0)”.
Take `COC[C@H]1CN(c2cc(Cl)c3c4c(c(=O)oc3c2C)CN(C(=O)c2cc(N(C)C)c(C(=O)NS(=O)(=O)N(C)C3CC3)cc2F)CC4)CCN1C` [Example 323, (R)-4-(10-chloro-8-(3-(methoxymethyl)-4-methylpiperazin-1-yl)-7-methyl-5-oxo-1,3,4,5-tetrahydro-2H-chromeno[3,4-c]pyridine-3-carbonyl)-N-(N-cyclopropyl-N-methylsulfamoyl)-2-(dimethylamino)-5-fluorobenzamide]: the IC50 lay within 1 to 10 nM in assay [1] and 100 to 1000 nM in assay [2]. Further, in assay [1], the “MTHFD1/MTHFD2 IC50 ratio” value is reported as “J (>30)”.
For `COC[C@H]1CN(c2cc(C)c3c4c(c(=O)oc3c2C)CN(C(=O)c2ccc(C(=O)NS(=O)(=O)N(C)C)c(O[C@H]3C[C@@H]5C[C@@H]5C3)c2F)CC4)CCN1C` [Example 67, 2-(((1R,3s,5S)-bicyclo[3.1.0]hexan-3-yl)oxy)-N-(N,N-dimethylsulfamoyl)-3-fluoro-4-(8-((R)-3-(methoxymethyl)-4-methylpiperazin-1-yl)-7,10-dimethyl-5-oxo-1,3,4,5-tetrahydro-2H-chromeno[3,4-c]pyridine-3-carbonyl)benzamide], in that order: 1 to 10 nM, 1 to 10 nM and “F (<3)”.
Taken in the same sequence, the figures for `COC[C@H]1CN(c2ccc3c4c(c(=O)oc3c2Cl)CN(C(=O)c2ccc(C(=O)NS(=O)(=O)N(C)C(C)C)c(OC3CCCC3)c2F)CC4)CCN1C` [Example 29, (R)-4-(7-chloro-8-(3-(methoxymethyl)-4-methylpiperazin-1-yl)-5-oxo-1,3,4,5-tetrahydro-2H-chromeno[3,4-c]pyridine-3-carbonyl)-2-(cyclopentyloxy)-3-fluoro-N-(N-isopropyl-N-methylsulfamoyl)benzamide] were 10 to 100 nM, 10 to 100 nM and “F (<3)”.
With `CCN1CCN(c2ccc3c4c(c(=O)oc3c2C)CN(C(=O)c2ccc(C(=O)NS(=O)(=O)N3CCCC3)c(OC3CCC3)c2F)CC4)C[C@@H]1COC` [Example 172, (R)-2-cyclobutoxy-4-(8-(4-ethyl-3-(methoxymethyl)piperazin-1-yl)-7-methyl-5-oxo-1,3,4,5-tetrahydro-2H-chromeno[3,4-c]pyridine-3-carbonyl)-3-fluoro-N-(pyrrolidin-1-ylsulfonyl)benzamide], in assay [1], the IC50 is 10 to 100 nM and the “MTHFD1/MTHFD2 IC50 ratio” value is listed as “F (<3)”. Moreover, in assay [2], the IC50 was 10 to 100 nM.
Turning to `COC[C@H]1CN(c2cc(Cl)c3c4c(c(=O)oc3c2C)CN(C(=O)c2cc(N(C)C)c(C(=O)NS(=O)(=O)N3CCC5(CC5)C3)cc2F)CC4)CCN1C` [Example 274, (R)-N-((5-azaspiro[2.4]heptan-5-yl)sulfonyl)-4-(10-chloro-8-(3-(methoxymethyl)-4-methylpiperazin-1-yl)-7-methyl-5-oxo-1,3,4,5-tetrahydro-2H-chromeno[3,4-c]pyridine-3-carbonyl)-2-(dimethylamino)-5-fluorobenzamide], in assay [1], the IC50 fell in the range of 10 to 100 nM and the “MTHFD1/MTHFD2 IC50 ratio” value is “H (>9.0 to 30)”. The IC50 in assay [2] was 100 to 1000 nM.
Taken in the same sequence, the figures for `COC[C@H]1CN(c2ccc3c4c(c(=O)oc3c2Cl)CN(C(=O)c2ccc(C(=O)NS(=O)(=O)C3(C)CC3)c(OC3CCC3)c2)CC4)CCN1C` [Example 10, (R)-4-(7-chloro-8-(3-(methoxymethyl)-4-methylpiperazin-1-yl)-5-oxo-1,3,4,5-tetrahydro-2H-chromeno[3,4-c]pyridine-3-carbonyl)-2-cyclobutoxy-N-((1-methylcyclopropyl)sulfonyl)benzamide] were 10 to 100 nM, “F (<3)” and 10 to 100 nM.
With `COC[C@H]1CN(c2cc(C)c3c4c(c(=O)oc3c2C)CN(C(=O)c2ccc(C(=O)NS(=O)(=O)C3(C)CC3)c(N3CCCC(F)(F)C3)c2F)CC4)CCN1C` [Example 76, (R)-2-(3,3-difluoropiperidin-1-yl)-3-fluoro-4-(8-(3-(methoxymethyl)-4-methylpiperazin-1-yl)-7,10-dimethyl-5-oxo-1,3,4,5-tetrahydro-2H-chromeno[3,4-c]pyridine-3-carbonyl)-N-((1-methylcyclopropyl)sulfonyl)benzamide], the IC50 was 1 to 10 nM in assay [1] and 10 to 100 nM in assay [2].
For `COC[C@H]1CN(c2ccc3c4c(c(=O)oc3c2C)CN(C(=O)c2ccc(C(=O)NS(=O)(=O)N(C)C)c(OC3CCCC3)c2F)CC4)CCN1C` [Example 5, (R)-2-(cyclopentyloxy)-N-(N,N-dimethylsulfamoyl)-3-fluoro-4-(8-(3-(methoxymethyl)-4-methylpiperazin-1-yl)-7-methyl-5-oxo-1,3,4,5-tetrahydro-2H-chromeno[3,4-c]pyridine-3-carbonyl)benzamide], in assay [1], the IC50 fell in the range of 10 to 100 nM and the “MTHFD1/MTHFD2 IC50 ratio” value was “F (<3)”. Also, the IC50 in assay [2] is 1 to 10 nM.
Consider `CCOc1cc(C(=O)N2CCc3c(c(=O)oc4c(C)c(N5CCN(C)[C@@H](COC)C5)cc(C)c34)C2)c(F)cc1C(=O)NS(=O)(=O)N(C)C1CC1` [Example 269, (R)-N-(N-cyclopropyl-N-methylsulfamoyl)-2-ethoxy-5-fluoro-4-(8-(3-(methoxymethyl)-4-methylpiperazin-1-yl)-7,10-dimethyl-5-oxo-1,3,4,5-tetrahydro-2H-chromeno[3,4-c]pyridine-3-carbonyl)benzamide], for which, in assay [1], the IC50 is 1 to 10 nM and the “MTHFD1/MTHFD2 IC50 ratio” value is on record as “J (>30)”. In assay [2], the IC50 lay in the range of 10 to 100 nM.
`Cc1c(N2CCN3CCOC[C@H]3C2)ccc2c3c(c(=O)oc12)CN(C(=O)c1ccc(C(=O)NS(=O)(=O)N2CCCC2)c(OC2CCC2)c1)CC3` [Example 19, (R)-2-cyclobutoxy-4-(8-(hexahydropyrazino[2,1-c][1,4]oxazin-8(1H)-yl)-7-methyl-5-oxo-1,3,4,5-tetrahydro-2H-chromeno[3,4-c]pyridine-3-carbonyl)-N-(pyrrolidin-1-ylsulfonyl)benzamide]: in assay [1], the IC50 was 100 to 1000 nM and the “MTHFD1/MTHFD2 IC50 ratio” value is “F (<3)”. Moreover, the IC50 in assay [2] was in the range of 100 to 1000 nM.
Consider `COC[C@H]1CN(c2cc(C)c3c4c(c(=O)oc3c2C)CN(C(=O)c2ccc(C(=O)NS(=O)(=O)N3CCC(F)CC3)c(OC)c2F)CC4)CCN1C` [Example 240], for which, in assay [1], the 50% inhibitory concentration (IC50) was in the range of 10 to 100 nM and the “MTHFD1/MTHFD2 IC50 ratio” value is listed as “H (>9.0 to 30)”. In assay [2], the IC50 lay in the range of 100 to 1000 nM.
For `CCOc1cc(C(=O)N2CCc3c(c(=O)oc4c(C)c(N5CCN(C)[C@@H](COC)C5)cc(Cl)c34)C2)c(F)cc1C(=O)NS(=O)(=O)N1CC2CCC(C1)O2` [Example 301, N-((8-oxa-3-azabicyclo[3.2.1]octan-3-yl)sulfonyl)-4-(10-chloro-8-((R)-3-(methoxymethyl)-4-methylpiperazin-1-yl)-7-methyl-5-oxo-1,3,4,5-tetrahydro-2H-chromeno[3,4-c]pyridine-3-carbonyl)-2-ethoxy-5-fluorobenzamide], in assay [1], the IC50 fell in the range of 10 to 100 nM and the “MTHFD1/MTHFD2 IC50 ratio” value is reported as “J (>30)”. Moreover, the IC50 in assay [2] lay within 100 to 1000 nM.
